According to publication PMC10290117, “Molecular mechanism of phosphopeptide neoantigen immunogenicity” (Nature Communications, 2023):

Tested on: TCR27-AKD10R3 cells
Experiment: X-scan (peptide scan), EGFP reporter effector cells
Assay type: cell-based, murine
Conditions: Fig. 1c source data, HLA B*07, T2 cells pulsed with 25 μg peptide per 1 × 10^6 cells, 2 h, 37 °C, effector cells 2:1 overnight, mean value of triplicate
Procedure: Tap-deficient T2 (174x CEM.T2) HLA-B*0702+ cells were received from Dr. Victor Engelhard. These and the commercially purchased Tap-deficient T2 (174 x CEM.T2) cells (ATCC CRL 1991) were maintained in RPMI 1640 (BioConcept) supplemented with 10% fetal calf serum (FCS, HyClone), 2mM L-glutamine and 1% Penicillin/Streptomycin at 37 °C and 5% CO2. The EGFP reporter cell line was based on a murine TCR negative thymoma cell line derived from strain BW5417 (ATCC®TIB-47TM) and was stably transduced with (a) TCR27 in which the human constant regions were replaced with those of mouse, (b) a chimeric mouse/human CD8, and (c) an EGFP reporter construct linked to a minimal IL-2 promoter comprising three NFAT-binding sites (3xNFAT)[44]. The transduced cells were termed TCR27-AKD10R3 cells and will be called the effector cells. Mouse cell lines were cultured in SF-IMDM (BioConcept) supplemented with 3% FCS, 1% Penicillin/Streptomycin, and 50 μM beta-mercaptoethanol at 37 °C and 10% CO2.
Peptides were dissolved in dimethyl sulfoxide (DMSO) at concentrations of 2–20 mg/mL, aliquoted and stored at −80 °C. Peptide-pulsing experiments were performed by pre-incubating T2 cells with 25 μg peptide per 1 × 10^6 cells in PBS for 2 h at 37 °C and 5% CO2, washed three times to remove unbound peptides and used for further downstream analysis. Peptide-pulsed T2 cells were incubated with effector cells in a 2:1 ratio overnight in SF-IMDM at 37 °C and 10% CO2, washed twice and stained with anti-mouse TCR-® chain clone H57-597 (BD Pharmingen #560656, 1:500) for 30 min at RT. Cells were washed twice before FACS-analysis using a BD FACS Canto II with System software v2.0. Data analysis was performed using FlowJo V10 Software. Binding affinity between each peptide and HLA-B*0702 was determined using an Alpha assay. It is a homogenous, proximity-based assay for detection of peptides binding to HLA class I molecules using a conformation-dependent anti-HLA class I antibody, W6/32, as one tag and a biotinylated recombinant HLA class I molecule as the other tag, and a proximity-based signal was generated through the luminescent oxygen channeling immunoassay technology (PerkinElmer) as described.
To identify the off-target peptides we have utilized an approach that was developed previously. In brief, we investigated which amino acids at each position in pMLL747–755 enable TCR interaction by sequentially replacing every amino acid position outside of the anchor positions 2 and 9 with all 19 alternative amino acids, resulting in 134 peptides (133 altered peptides plus original epitope). Each peptide was individually evaluated using cell-based in vitro cytotoxicity assay. To represent the TCR recognition kernel, we have defined Position Weight Matrices (PWMs) for each assay by assigning normalized measurements to each of the 20 amino acids in each position. To predict potential off-target peptides, we applied an algorithm projecting the PWM-defined kernel into the human proteome, scoring TCR27 recognition for the predicted HLA-B^*0702 binding 9-mer peptides. Of the 11 peptides with highest predicted cross-reactivity scores, we confirmed that only 2, […] and pDOT1L998–1006, strongly activated the TCR27-expressing effector T cells.

Substance	Percentage GFP positive from TCR+ cells [%]
EPRRPSHSM [single-residue substitution of pMLL747–755, Pos 4]	0.98
EPRTPSHSM [single-residue substitution of pMLL747–755, Pos 4]	0.8
EPRVPSHSM [single-residue substitution of pMLL747–755, Pos 4]	0.76
EPRWPSHSM [single-residue substitution of pMLL747–755, Pos 4]	0.96
EPRYPSHSM [single-residue substitution of pMLL747–755, Pos 4]	0.87
EPRsASHSM [single-residue substitution of pMLL747–755, Pos 5]	0.92
EPRsCSHSM [single-residue substitution of pMLL747–755, Pos 5]	0.98
EPRsDSHSM [single-residue substitution of pMLL747–755, Pos 5]	0.95
EPRsESHSM [single-residue substitution of pMLL747–755, Pos 5]	0.97
EPRsFSHSM [single-residue substitution of pMLL747–755, Pos 5]	0.91
EPRsGSHSM [single-residue substitution of pMLL747–755, Pos 5]	0.96
EPRsHSHSM [single-residue substitution of pMLL747–755, Pos 5]	0.93
EPRsISHSM [single-residue substitution of pMLL747–755, Pos 5]	0.81
EPRsKSHSM [single-residue substitution of pMLL747–755, Pos 5]	0.9
EPRsLSHSM [single-residue substitution of pMLL747–755, Pos 5]	0.88
EPRsMSHSM [single-residue substitution of pMLL747–755, Pos 5]	0.97
EPRsNSHSM [single-residue substitution of pMLL747–755, Pos 5]	0.84
EPRsPAHSM [single-residue substitution of pMLL747–755, Pos 6]	1.34
EPRsPCHSM [single-residue substitution of pMLL747–755, Pos 6]	8.54
EPRsPDHSM [single-residue substitution of pMLL747–755, Pos 6]	1.07

Substance	Percentage GFP positive from TCR+ cells [%]
EPRsPEHSM [single-residue substitution of pMLL747–755, Pos 6]	4.34
EPRsPFHSM [single-residue substitution of pMLL747–755, Pos 6]	0.82
EPRsPGHSM [single-residue substitution of pMLL747–755, Pos 6]	1.34
EPRsPHHSM [single-residue substitution of pMLL747–755, Pos 6]	2.09
EPRsPIHSM [single-residue substitution of pMLL747–755, Pos 6]	0.85
EPRsPKHSM [single-residue substitution of pMLL747–755, Pos 6]	0.87
EPRsPLHSM [single-residue substitution of pMLL747–755, Pos 6]	0.96
EPRsPMHSM [single-residue substitution of pMLL747–755, Pos 6]	0.73
EPRsPNHSM [single-residue substitution of pMLL747–755, Pos 6]	12.1
EPRsPPHSM [single-residue substitution of pMLL747–755, Pos 6]	0.96
EPRsPQHSM [single-residue substitution of pMLL747–755, Pos 6]	0.89
EPRsPRHSM [single-residue substitution of pMLL747–755, Pos 6]	0.98
EPRsPSASM [single-residue substitution of pMLL747–755, Pos 7]	0.88
EPRsPSCSM [single-residue substitution of pMLL747–755, Pos 7]	0.97
EPRsPSDSM [single-residue substitution of pMLL747–755, Pos 7]	0.72
EPRsPSESM [single-residue substitution of pMLL747–755, Pos 7]	1.15
EPRsPSFSM [single-residue substitution of pMLL747–755, Pos 7]	0.97
EPRsPSGSM [single-residue substitution of pMLL747–755, Pos 7]	0.85
EPRsPSHAM [single-residue substitution of pMLL747–755, Pos 8]	8.72
EPRsPSHCM [single-residue substitution of pMLL747–755, Pos 8]	4.53

Substance	Percentage GFP positive from TCR+ cells [%]
EPRsPSHDM [single-residue substitution of pMLL747–755, Pos 8]	5.87
EPRsPSHEM [single-residue substitution of pMLL747–755, Pos 8]	8.26
EPRsPSHFM [single-residue substitution of pMLL747–755, Pos 8]	1.28
EPRsPSHGM [single-residue substitution of pMLL747–755, Pos 8]	1.39
EPRsPSHHM [single-residue substitution of pMLL747–755, Pos 8]	3.9
EPRsPSHIM [single-residue substitution of pMLL747–755, Pos 8]	3.8
EPRsPSHKM [single-residue substitution of pMLL747–755, Pos 8]	2.14
EPRsPSHLM [single-residue substitution of pMLL747–755, Pos 8]	6.68
EPRsPSHMM [single-residue substitution of pMLL747–755, Pos 8]	5.43
EPRsPSHNM [single-residue substitution of pMLL747–755, Pos 8]	2.91
EPRsPSHPM [single-residue substitution of pMLL747–755, Pos 8]	2.91
EPRsPSHQM [single-residue substitution of pMLL747–755, Pos 8]	2.83
EPRsPSHRM [single-residue substitution of pMLL747–755, Pos 8]	1.29
EPRsPSHTM [single-residue substitution of pMLL747–755, Pos 8]	1.97
EPRsPSHVM [single-residue substitution of pMLL747–755, Pos 8]	3.82
EPRsPSHWM [single-residue substitution of pMLL747–755, Pos 8]	0.87
EPRsPSHYM [single-residue substitution of pMLL747–755, Pos 8]	1.1
EPRsPSISM [single-residue substitution of pMLL747–755, Pos 7]	1.77
EPRsPSKSM [single-residue substitution of pMLL747–755, Pos 7]	0.69
